The results in this text go back to ChEMBL document CHEMBL3352092, “Ferrier sulfamidoglycosylation of glycals catalyzed by nitrosonium tetrafluoroborate: towards new carbonic anhydrase glycoinhibitors” (Bioorg Med Chem, 2014).

One test addresses Carbonic anhydrase 9 (Homo sapiens, UniProt Q16790). The experiment in a line: Inhibition of human recombinant CA9 catalytic domain by stopped flow CO2 hydration assay.
For a further test, the target named is Carbonic anhydrase 1 (Homo sapiens, UniProt P00915). The experiment in a line: Inhibition of human full length CA1 by stopped flow CO2 hydration assay.
Carbonic anhydrase 1, sequence (P00915 whole entry): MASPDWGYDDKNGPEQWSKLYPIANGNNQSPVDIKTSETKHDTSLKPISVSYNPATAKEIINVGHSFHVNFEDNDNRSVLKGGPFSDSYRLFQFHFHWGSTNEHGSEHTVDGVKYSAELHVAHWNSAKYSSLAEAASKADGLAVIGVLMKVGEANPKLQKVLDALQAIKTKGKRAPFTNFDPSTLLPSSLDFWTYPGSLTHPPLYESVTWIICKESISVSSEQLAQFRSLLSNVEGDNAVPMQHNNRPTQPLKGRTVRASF
In a further test the target is Carbonic anhydrase 2 (Homo sapiens, UniProt P00918). The experiment in a line: Inhibition of human full length CA2 by stopped flow CO2 hydration assay.

pKi: −log10 of the molar value. Where only a bound is given, the exact number is not on record here.

With `CC(=O)OC[C@H]1OC(NS(=O)(=O)NO)C=C[C@@H]1OC(C)=O` (stereo partly drawn), the negative logarithm of the Ki (pKi) at Carbonic anhydrase 9 is 7.05; on Carbonic anhydrase 1, 6.09.

Consider `CC(=O)OC[C@H]1OC(NS(=O)(=O)NO)C=C[C@H]1OC(C)=O` (stereo partly drawn), for which the pKi on Carbonic anhydrase 9 is 7.10; at Carbonic anhydrase 1 it was 6.12.

For the compound `CC(=O)O[C@H]1C=CC(NS(=O)(=O)NO)OC1` (stereo partly drawn), the pKi was 7.27 at Carbonic anhydrase 9, under 5.00 on Carbonic anhydrase 1 and under 5.00 at Carbonic anhydrase 2.

`CC(=O)O[C@@H]1C=CC(NS(=O)(=O)NO)OC1` (stereo partly drawn): the pKi was 7.36 at Carbonic anhydrase 9, under 5.00 at Carbonic anhydrase 1 and under 5.00 at Carbonic anhydrase 2.

As to `CC(=O)O[C@@H]1C=CC(NS(=O)(=O)NO)O[C@H]1C` (stereo partly drawn), the pKi was 7.33 on Carbonic anhydrase 9 and under 5.00 at Carbonic anhydrase 1.

Turning to `O=S(=O)(NO)NC1C=C[C@H](O)[C@@H](CO)O1` (stereo partly drawn), the figures for the pKi at Carbonic anhydrase 9 and at Carbonic anhydrase 1 were 8.05 and under 5.00, respectively.

For the compound `O=S(=O)(NO)NC1C=C[C@@H](O)[C@@H](CO)O1` (stereo partly drawn), the pKi on Carbonic anhydrase 9 is 7.36; on Carbonic anhydrase 1, 6.04.

For `O=S(=O)(NO)NC1C=C[C@H](O)CO1` (stereo partly drawn), the pKi was 8.10 at Carbonic anhydrase 9 and 6.03 on Carbonic anhydrase 1.

Consider `O=S(=O)(NO)NC1C=C[C@@H](O)CO1` (stereo partly drawn), for which the pKi on Carbonic anhydrase 9 was 8.05; at Carbonic anhydrase 1, under 5.00.

Consider `C[C@@H]1OC(NS(=O)(=O)NO)C=C[C@H]1O` (stereo partly drawn), for which the figures for the pKi on Carbonic anhydrase 9, at Carbonic anhydrase 1 and on Carbonic anhydrase 2 were 8.10, under 5.00 and under 5.00, respectively.

What is called pKi is the negative decadic logarithm of the Ki, by convention in mol/L.
